From patent US7763615B2, “Ecteinascidin analogs for use as antitumour agents” (priority 2001, dated 2010)

Tests used:
[1] = system: L8, normal rat skeletal muscle cells; conditions: 24 h
[2] = system: FDC-P1, normal mouse myelogeous stem cells; conditions: 24 h
[3] = target: CYP2D6 (Homo sapiens, UniProt P10635); assay: in vitro; conditions: CYP2D6 (% inhibition)
Chain of CYP2D6 (P10635 whole entry): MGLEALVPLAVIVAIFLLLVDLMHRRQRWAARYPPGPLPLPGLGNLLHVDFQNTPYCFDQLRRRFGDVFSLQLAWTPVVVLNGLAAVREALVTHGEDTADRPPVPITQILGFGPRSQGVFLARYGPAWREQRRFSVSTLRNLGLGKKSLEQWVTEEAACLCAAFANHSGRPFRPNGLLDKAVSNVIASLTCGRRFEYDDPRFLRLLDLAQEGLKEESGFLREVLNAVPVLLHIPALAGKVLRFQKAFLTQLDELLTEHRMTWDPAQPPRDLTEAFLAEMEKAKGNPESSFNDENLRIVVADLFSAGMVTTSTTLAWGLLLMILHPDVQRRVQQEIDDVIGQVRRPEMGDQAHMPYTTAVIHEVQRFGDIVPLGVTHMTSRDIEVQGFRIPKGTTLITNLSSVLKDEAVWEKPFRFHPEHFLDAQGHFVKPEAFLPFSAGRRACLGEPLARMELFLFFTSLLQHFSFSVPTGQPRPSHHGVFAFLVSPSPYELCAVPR

Structure (SMILES): COc1c(C)cc2c(c1O)[C@@H]1C3[C@@H]4SC[C@]5(NCCc6c5[nH]c5c(C)cccc65)C(=O)COC[C@@H](c5c6c(c(C)c(OC(C)=O)c54)OCO6)N3[C@@H](O)[C@H](C2)N1C (stereo partly drawn) [Compound 36]
- Skeletal [1]: 2.71E−08
- Myelo [2]: 2.05E−07
- inhibition at 450 min, 10 µM [3]: 15%
